# “And” between values parts separate entries of the source, which are not always exact repeats. Equal entries are not always repeated.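 Cultured in 96-well plates, cells were exposed to test compound for 48 hours across five concentrations. Here, GI50 denotes the concentration required for 50% inhibition of growth. At the TGI there is no net growth.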
# Key:
# Experiment in all cases: growth of human tumour cells (NCI), 48 h
# [1] = tested on: UO-31 renal
# [2] = tested on: RPMI-8226 leukemia
# [3] = tested on: BT-549 breast
# [4] = tested on: SNB-75 CNS
# [5] = tested on: OVCAR-5 ovarian
# [6] = tested on: HT29 colon
# [7] = tested on: SF-295 CNS
# [8] = tested on: OVCAR-3 ovarian
# [9] = tested on: HCT-15 colon
# [10] = tested on: M14 melanoma
Compound,GI50 [1],TGI [1],GI50 [2],TGI [2],GI50 [3],TGI [3],GI50 [4],TGI [4],GI50 [5],TGI [5],GI50 [6],TGI [6],GI50 [7],TGI [7],GI50 [8],TGI [8],GI50 [9],TGI [9],GI50 [10],TGI [10]
C/C(=C\c1ccc2ccccc2c1)[N+](=O)[O-],1.39 µM,2.9 µM,1.57 µM,4.39 µM,2.24 µM,4.57 µM,1.84 µM,4.21 µM,1.87 µM,3.63 µM,2.18 µM,4.46 µM,13.1 µM,27.6 µM,1.91 µM,3.37 µM,1.56 µM,3.59 µM,2.2 µM,4.94 µM
O=C1OCC2=C1C(c1ccc(Cl)c(Cl)c1)c1cc3c(cc1N2CCO)OCCO3 (centres undefined),0.256 µM,30.6 µM,0.405 µM,12.9 µM,0.583 µM,15.5 µM,0.128 µM,9.2 µM,0.736 µM,> 33.2 µM,0.148 µM,0.502 µM,0.151 µM,2.84 µM,0.127 µM,0.351 µM,0.245 µM,> 50 µM,0.264 µM,5.65 µM
CN[C@@H](C)C(=O)N[C@H](C(=O)N1CCC[C@H]1C(=O)Nc1sc(-c2ncco2)nc1-c1ccccc1)C1CCCCC1,32.1 µM,> 68.9 µM,25.1 µM,> 89.9 µM,0.0598 µM,33.6 µM,12.2 µM,65.4 µM,38 µM,> 64.6 µM,28.6 µM,68.6 µM,52.9 µM,> 100 µM,38.7 µM,> 100 µM,22.6 µM,> 78.7 µM,18.5 µM,36.7 µM
COc1cc2c(cc1OCCCn1c(-c3ccccn3)nc3ccccc31)N=C[C@@H]1CCCN1C2=O,0.474 µM,2.59 µM,8.8 µM,> 20.8 µM,1.6 µM,4.87 µM,1.72 µM,5.73 µM,3.41 µM,9.34 µM,3.61 µM,> 79.6 µM,4.05 µM,49.7 µM,2.18 µM,5.11 µM,2.5 µM,9.92 µM,0.92 µM,2.8 µM
NC(CSC1c2ccccc2-c2ccccc21)C(=O)O (centres undefined),,> 100 µM,,> 100 µM,,> 100 µM,,> 100 µM,,> 100 µM,,> 100 µM,,> 100 µM,,> 100 µM,,> 100 µM,,> 100 µM
Cc1cc(S(=O)(=O)/N=C(/N)Nc2ccccc2O)c(SCc2ccccc2)cc1Cl,6.99 µM,25.7 µM,11.4 µM,52.3 µM,8.2 µM,22.8 µM,19.3 µM,39.2 µM,19.8 µM,35.9 µM,32.5 µM,> 100 µM,19 µM,39.5 µM,14.5 µM,34.1 µM,12.1 µM,28 µM,15.3 µM,32.3 µM
COc1cc2c(cc1C1COc3cc4occc4cc3C1=O)OCO2 (centres undefined),,> 100 µM,,30.1 µM,,> 100 µM,,> 100 µM,,> 100 µM,,> 100 µM,,> 100 µM,,> 100 µM,,> 100 µM,,> 100 µM
C[C@@H]1CN(Cc2ccc(F)cc2)[C@@H](C)CN1C(=O)c1cc2c(C(=O)C(=O)N(C)C)cn(C)c2cc1Cl,15.3 µM,> 81.9 µM,16.7 µM,51.9 µM,15.2 µM,41.8 µM,8.35 µM,27.9 µM,21.8 µM,60.4 µM,14 µM,36.3 µM,14.9 µM,36.7 µM,18.7 µM,39.2 µM,18.3 µM,47.3 µM,13.4 µM,36.6 µM
c1cnn2ncc(-c3ccnc(NCCCN4CCOCC4)n3)c2c1,5.23 µM,21 µM,6.7 µM,> 25 µM,7.5 µM,> 25 µM,5.52 µM,12.7 µM,7.28 µM,24.9 µM,7.43 µM,> 25 µM,5.81 µM,> 20.4 µM,6.16 µM,> 21.9 µM,8.01 µM,> 25 µM,8.63 µM,> 25 µM
NNC(=O)CS(=O)(=O)Nc1ncccn1,,> 100 µM,,> 100 µM,,> 100 µM,,> 100 µM,,> 100 µM,,> 100 µM,,> 100 µM,,> 100 µM,,> 100 µM,,> 100 µM
NC(=O)c1csc(C2OC(CO)C(O)C2O)n1 (centres undefined),44.6 µM,1740 µM,> 20.1 µM,8150 µM,> 60.7 µM,> 10000 µM,26.5 µM and 40.8 µM,7140 µM,,> 9720 µM,45.9 µM,> 10000 µM,> 43.9 µM and 13.6 µM,> 8180 µM,22.2 µM,7030 µM,4.97 µM,1440 µM,10.2 µM,5650 µM
CC(C)NCCCn1c(Sc2cc3c(cc2I)OCO3)nc2c(N)ncnc21,0.323 µM,7.13 µM,1.53 µM,> 47.7 µM,1.51 µM,> 100 µM,0.727 µM,> 100 µM,3.02 µM,> 100 µM,0.0381 µM,> 83.2 µM,0.143 µM,8.52 µM,0.585 µM,> 100 µM,0.441 µM,> 100 µM,0.233 µM,20.9 µM
O=C1c2c(c3c4ccccc4[nH]c3c3ccc4ccccc4c23)C(=O)N1CCN1CCNCC1,1.24 µM,2.53 µM,1.81 µM,4.1 µM,1.58 µM,2.97 µM,1.47 µM,2.82 µM,1.72 µM,3.12 µM,1.72 µM,3.27 µM,1.85 µM,3.42 µM,1.83 µM,3.48 µM,1.49 µM,2.98 µM,1.67 µM,3.24 µM
OCc1ccc(N2CCCC2c2ccccc2)cc1Cl (centres undefined),9.28 µM,27.4 µM,4.36 µM,23.6 µM,7.12 µM,18.7 µM,3.28 µM,29 µM,0.351 µM,1.52 µM,3.37 µM,14.3 µM,2.34 µM,7.77 µM,2.3 µM,10.1 µM,4.24 µM,20 µM,5.24 µM,21.3 µM
COC1C=COC2(C)Oc3c(C)c(O)c4c(c3C2=O)/C(=N/C2CCC(O)OC2C)C=C(NC(=O)/C(C)=C\C(=O)C2CC2C(O)C(C)C(O)C(C)C(OC(C)=O)C1C)C4=O (centres undefined),,5.59 µM,,5.74 µM,,6.28 µM,,12.4 µM,,8.45 µM,,2.71 µM,,13.3 µM,,5.21 µM,,9.79 µM,,4.47 µM
O=C1c2cccnc2C(=O)c2c1c(C(=O)NCCCN1CCCCC1)c1ccccn21,1.42 µM,6.71 µM,3.43 µM,> 100 µM,2.47 µM,6.89 µM,1.36 µM,2.86 µM,1.85 µM,7.44 µM,0.391 µM,2.92 µM,0.845 µM,8.45 µM,0.321 µM,1.75 µM,0.816 µM,2.57 µM,1.15 µM,2.44 µM
COc1cccc(OC(=O)c2ccc(C(F)(F)F)nc2Nc2cc(Cl)ccc2C)c1,5.8 µM,> 100 µM,4.2 µM,23.2 µM,7.63 µM,41.7 µM,9.04 µM,> 100 µM,15.1 µM,47.4 µM,4.28 µM,> 100 µM,23.9 µM,48.2 µM,22.9 µM,46.8 µM,4.33 µM,> 100 µM,19.3 µM,56.6 µM
Nc1nc(OCc2ccccc2)c2[nH]cnc2n1,17.1 µM,82 µM and 82.2 µM,50 µM and 21.6 µM,69 µM,24.3 µM and 22.1 µM,115 µM,13.9 µM,67.3 µM and 86.1 µM,52.7 µM and 42.6 µM,241 µM and 240 µM,45.8 µM and 39.9 µM,400 µM and 175 µM,35.2 µM and 24.1 µM,395 µM and 118 µM,33.9 µM,400 µM and 284 µM,25.5 µM and 21.7 µM,400 µM and 222 µM,25.6 µM and 26.5 µM,204 µM and 116 µM
CO/N=C(\COc1ccc2c(c1)[nH]c1ccccc12)c1ccc(F)cc1,> 100 µM,> 100 µM,43.9 µM,> 100 µM,> 100 µM,> 100 µM,9.17 µM,89.6 µM,> 100 µM,> 100 µM,> 100 µM,> 100 µM,30.1 µM,> 100 µM,10.6 µM,> 100 µM,> 100 µM,> 100 µM,> 100 µM,> 100 µM
